Structures can show the parent of a compound that is named as a salt. Where two headings read alike, the source gives them in different places.
Columns and labels:
HiBiT-tagged MYB protein = test: HiBiT protein abundance assay, MYB (K562 HiBiT knock-in); format: cell-based, human; details: HiBiT knock-in cells, 24 hours
Protocol: (§1) Compounds described herein were used to screen for effects on quantitative protein abundance using a HiBit assay system (Promega). Quantitative protein abundance was determined by measuring the protein levels of HiBit-tagged protein targets expressed in cell culture via luminescence using the Nano-Glo HiBiT Lytic Detection System, which uses a split complementation assay format to reconstitute NanoBiT enzyme to generate a luminescent signal. A protein abundance assay was developed such that endogenous protein targets could be modified with the HiBiT peptide tag and their abundance could be assessed after compound treatment. Briefly, K562 cell lines containing a HiBiT-modification were treated with various compounds described herein (e.g., compounds of Formulas (I), or (II)). After treatment for 24 hours, the protein abundance of a specific target was determined by measuring luminescence.
(§2) • Promega Nano-Glo HiBiT Lytic Detection System (cat #N3030) • Corning 384-well TC-treated microplates (cat #3570)
(§3) Cells were maintained in IMDM with 10% FBS. Before the assay, cells were diluted with […] growth media (IMDM+1% FBS media) and were seeded in a 384-well plate at a density of 10000 cells/well (for each cell line listed in Table 6). Each compound was prepared as a 10-point 3-old serial dilution in DMSO with the top dose at a final concentration of 10 μM in the well. Unmodified K562 cells were added at the previously specified density with DMSO to serve as an assay baseline and positive control (PC) and DMSO only with the respective modified cell lines was added to the negative control (NC) columns. Final DMSO concentration was kept at or below 0.25%. Treated cell plates were placed in an incubator at 37° C. with 5% CO2 for 24 hours. After 24 hours, 25 μL of Complete HiBit Lytic reagent was added to each well at room temperature (e.g. one plate requiring 10 ml Lytic Buffer, 100 μL LgBiT Protein, 200 μL Lytic Substrate), shaken for 5 minutes at 600 RPM, then left to sit for 10 minutes for signal to stabilize before reading on a Spark Cyto plate reader (Tecan) with a 500 ms measurement time.
(§4) To determine compound effects on protein abundance of each target in Table 6, the percent response for each respective cell line was calculated at each compound concentration as follows:
(§5) For the normalized response at each concentration, a four-parameter logistical regression was fit to the data and the response was interpolated at the 50% value to determine a concentration for protein abundance at 50% (IC50) the untreated control.

K562 cells = test: Cell viability, Cell Titer Glo 2.0 assay, K562; details: 72 hours
HiBiT-tagged HTT protein = test: HiBiT protein abundance assay, HTT (K562 HiBiT knock-in); format: cell-based, human; details: HiBiT knock-in cells, 24 hours
Protocol: as §1, §2, §3, §4, §5

HTT mRNA = test: Splicing RT-qPCR assay, HTT canonical (CJ) and alternative (AJ) junction mRNA; format: cell-based, human; details: Homo sapiens; for IC50: canonical junction mRNA; for AC50: alternative junction mRNA, read-out: HTT AJ (AC50, increase in AJ mRNA)
How it was run: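 Splicing switches are scored by TaqMan qPCR on cell lysate, comparing abundance of the normal exon junction with the new junction formed when the alternative exon is included. A673 results are referenced to PPIA and K562 results to GAPDH or GUSB. Compound exposure lasts 24 h.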

[1] = 24 h, RT-qPCR, A673 or K562 cells, 24 hours treatment, read-out: HTT CJ (IC50, decrease in CJ mRNA)
[2] = qPCR panel, read-out: HTT CJ (decrease in CJ mRNA levels, IC50)
[3] = RT-qPCR, A673 or K562 cells, 24 hours treatment

| IC50 (HiBiT-tagged MYB protein) [µM] | IC50 (HiBiT-tagged HTT protein) [µM] | IC50 (HTT mRNA; [1]) [µM] | IC50 (HTT mRNA; [2]) [µM] | SMILES | Effect on Cell Viability, K562 (K562 cells) | AC50 (HTT mRNA; [3]) [µM] |
| --- | --- | --- | --- | --- | --- | --- |
| < 0.1 | 0.1 to 1 | < 0.1 | < 0.1 | CN[C@@H]1CCN(c2cnc3nc(-c4cc5cn(C)nc5c(C)c4O)ccc3c2)C1 [Compound 112] | B (100-1000 nM) | < 0.1 |
| 1 to 10 | 1 to 10 | 1 to 10 | 1 to 10 | Cc1cn2nc(-c3cnc4nc(C5CCNCC5)ccc4c3)cc(C)c2n1 [Compound 115, 6-(2,8-dimethylimidazo[1,2-b]pyridazin-6-yl)-2-(piperidin-4-yl)-1,8-naphthyridine] | C (1000-9999 nM) | > 10 |
| < 0.1 | < 0.1 | < 0.1 | < 0.1 | CN[C@H]1CCN(c2cnc3nc(-c4cc(C)c5nc(C)cn5n4)ccc3c2)C1 [Compound 116] | A (<100 nM) | < 0.1 |
| < 0.1 | 0.1 to 1 | 1 to 10 | 1 to 10 | CN[C@@H]1CCN(c2cnc3nc(-c4cc(C)c5nc(C)cn5n4)ccc3c2)C1 [Compound 117] | B (100-1000 nM) | 0.1 to 1 |
| < 0.1 | < 0.1 | < 0.1 | < 0.1 | Cc1c(O)c(-c2ccc3cc(N4CC[C@@H](NCC5CC5)C4)cnc3n2)cc2cn(C)nc12 [Compound 118] | A (<100 nM) | < 0.1 |
| < 0.1 | 0.1 to 1 | 0.1 to 1 | 0.1 to 1 | CN[C@H]1CCN(c2cnc3nc(-c4cc5cn(C)nc5c(C)c4O)ncc3c2)C1 [Compound 120] | A (<100 nM) | 0.1 to 1 |
| < 0.1 | < 0.1 | < 0.1 | < 0.1 | CCNC1CCN(c2cnc3nc(-c4cc5cn(C)nc5c(C)c4O)ccc3c2)C1 (stereo not drawn) [Compound 122, 5-{6-[3-(ethylamino)pyrrolidin-1-yl]-1,8-naphthyridin-2-yl}-2,7-dimethylindazol-6-ol] | A (<100 nM) | < 0.1 |
| < 0.1 | < 0.1 | < 0.1 | < 0.1 | CCN[C@@H]1CCN(c2cnc3nc(-c4cc5cn(C)nc5c(C)c4O)ccc3c2)C1 [Compound 124] | A (<100 nM) | < 0.1 |
| < 0.1 | < 0.1 | 0.1 to 1 | 0.1 to 1 | CN[C@H]1CN(c2cnc3nc(-c4cc5cn(C)nc5c(C)c4O)ccc3c2)C[C@H]1C [Compound 125, 2,7-dimethyl-5-{6-[(3R,4R)-3-methyl-4-(methylamino)379pyrrolidine-1-yl]-1,8-naphthyridin-2-yl}indazol-6-ol] | A (<100 nM) | 0.1 to 1 |
| 0.1 to 1 | 0.1 to 1 | 0.1 to 1 | 0.1 to 1 | CN[C@@H]1CN(c2cnc3nc(-c4cc5cn(C)nc5c(C)c4O)ccc3c2)C[C@H]1C [Compound 126, 2,7-dimethyl-5-{6-[(3R,4S)-3-methyl-4-(methylamino)382pyrrolidine-1-yl]-1,8-naphthyridin-2-yl}indazol-6-ol] | B (100-1000 nM) | 1 to 10 |
| < 0.1 | < 0.1 | 0.1 to 1 | 0.1 to 1 | CN[C@H]1CN(c2cnc3nc(-c4cc5cn(C)nc5c(C)c4O)ccc3c2)C[C@@H]1C [Compound 127, 2,7-dimethyl-5-{6-[(3S,4R)-3-methyl-4-(methylamino)384pyrrolidine-1-yl]-1,8-naphthyridin-2-yl}indazol-6-ol] | A (<100 nM) | 0.1 to 1 |
| < 0.1 | 0.1 to 1 | 0.1 to 1 | 0.1 to 1 | CN[C@@H]1CN(c2cnc3nc(-c4cc5cn(C)nc5c(C)c4O)ccc3c2)C[C@@H]1C [Compound 128] | A (<100 nM) | 0.1 to 1 |
| 0.1 to 1 | 0.1 to 1 | 0.1 to 1 | 0.1 to 1 | CN[C@H]1CN(c2cnc3nc(-c4cc5cn(C)nc5c(C)c4O)ccc3c2)C[C@H]1F [Compound 129, 5-{6-[(3R,4S)-3-fluoro-4-(methylamino)pyrrolidin-1-yl]-1,8-naphthyridin-2-yl}-2,7-dimethylindazol-6-ol] | B (100-1000 nM) | 0.1 to 1 |
| < 0.1 | 0.1 to 1 | 0.1 to 1 | 0.1 to 1 | CN[C@@H]1CN(c2cnc3nc(-c4cc5cn(C)nc5c(C)c4O)ccc3c2)C[C@@H]1F [Compound 132, 5-{6-[(3S,4R)-3-fluoro-4-(methylamino)pyrrolidin-1-yl]-1,8-naphthyridin-2-yl}-2,7-dimethylindazol-6-ol] | B (100-1000 nM) | 0.1 to 1 |
| 1 to 10 | 0.1 to 1 | 1 to 10 | 1 to 10 | Cn1cc2cc(-c3cnc4nc(N5CCC(NC(C)(C)C)C5)ccc4c3)c(O)cc2n1 (stereo not drawn) [Compound 133, 5-{7-[3-(tert-butylamino)pyrrolidin-1-yl]-1,8-naphthyridin-3-yl}-2-methylindazol-6-ol] | D (greater than 10 μM) | > 10 |
| 0.1 to 1 | 0.1 to 1 | 0.1 to 1 | 0.1 to 1 | Cn1cc2cc(-c3ccc4cc(N5CCC(NC(C)(C)C)C5)cnc4n3)c(O)cc2n1 (stereo not drawn) [Compound 134, 5-{6-[3-(tert-butylamino)pyrrolidin-1-yl]-1,8-naphthyridin-2-yl}-2-methylindazol-6-ol hydrochloride] | B (100-1000 nM) | 0.1 to 1 |
| < 0.1 | < 0.1 | < 0.1 | < 0.1 | Cn1cc2cc(-c3ccc4cc(N5CC[C@@H](NCC6CC6)C5)cnc4n3)c(O)c(F)c2n1 [Compound 135, 5-{6-[(3R)-3-[(cyclopropylmethyl)amino]330pyrrolidine-1-yl]-1,8-naphthyridin-2-yl}-7-fluoro-2-methylindazol-6-ol] | A (<100 nM) | < 0.1 |
| < 0.1 | 0.1 to 1 | 0.1 to 1 | 0.1 to 1 | Cn1cc2cc(-c3ccc4cc(N5CC[C@H](NCC6CC6)C5)cnc4n3)c(O)c(F)c2n1 [Compound 136, 5-{6-[(3S)-3-[(cyclopropylmethyl)amino]326pyrrolidine-1-yl]-1,8-naphthyridin-2-yl}-7-fluoro-2-methylindazol-6-ol] | A (<100 nM) | 0.1 to 1 |
| < 0.1 | 0.1 to 1 | 0.1 to 1 | 0.1 to 1 | Cc1c(O)c(-c2ccc3cc(N4CCNCC4)cnc3n2)cc2cn(C)nc12 [Compound 137, 2,7-dimethyl-5-[6-(piperazin-1-yl)-1,8-naphthyridin-2-yl]indazol-6-ol] | B (100-1000 nM) | 0.1 to 1 |
| < 0.1 | 0.1 to 1 | 0.1 to 1 | 0.1 to 1 | Cc1c(O)c(-c2ccc3cc(N4CCC(N(C)C)CC4)cnc3n2)cc2cn(C)nc12 [Compound 138, 5-{6-[4-(dimethylamino)piperidin-1-yl]-1,8-naphthyridin-2-yl}-2,7-dimethylindazol-6-ol] | A (<100 nM) | 1 to 10 |
| < 0.1 | < 0.1 | < 0.1 | < 0.1 | CNC1CCN(c2cnc3nc(-c4cc5cn(C)nc5c(C)c4O)cc(Cl)c3c2)C1 (stereo not drawn) [Compound 142, 5-{4-chloro-6-[3-(methylamino)351pyrrolidine-1-yl]-1,8-naphthyridin-2-yl}-2,7-dimethylindazol-6-ol] | A (<100 nM) | 0.1 to 1 |
